Results on 8 molecules are retold here after patent publication EP0485111A2, “The use of lipoxygenase and cyclooxygenase inhibitors as synergistic agents” (ZENECA LIMITED, priority 1990, dated 1992).

In this experiment the test system is arachidonic acid induced inflammatory response. The experiment in a line: arachidonic acid induced mouse ear inflammatory oedema test (mouse ear inflammatory model), oral dosing. Type of experiment: in vivo. To be noted: for inhibition in vivo at 3 mg/kg / inhibition in vivo at 30 mg/kg / inhibition in vivo at 10 mg/kg / inhibition in vivo at 1 mg/kg: Mus musculus, po; for inhibition (anti-inflammatory effect of the CO inhibitors): CO inhibitor alone at 1-10 mg/kg orally. The protocol:
According to the test method, groups of 10 mice (25-30 g each) were dosed orally with vehicle alone (a mixture of 0.5% hydroxypropylmethylcellulose, 0.1% polysorbate 80 and water), with the 5-LO inhibitor alone, with a CO-inhibitor alone, or with a combination of 5-LO and CO inhibitors. After a period of 1 hour arachidonic acid (1 mg in 10 microlitres of acetone) was applied topically to one ear of each mouse. After a further period of 1 hour the mice were killed and a disc-shaped portion (6 mm in diameter) was punched from each ear. Comparison of the weights of the ear-discs between the arachidonic acid treated and untreated ears allows the effect of each treatment to be determined. The effect of each test compound or combination of compounds is calculated as follows ('ear weight diff.' means the mean difference in the weights of the disc-shaped portions of ear punched from the arachidonic acid-treated ear compared to the untreated ear for each mouse):- [table]

Where [1] appears, read: summary of Examples 1 to 10, variable.

As for `O=C(O)Cc1ccccc1Nc1c(Cl)cccc1Cl` [D, diclofenac, reference compound], the inhibition in vivo at 3 mg/kg (Ex 8, D 3 mg/kg orally alone) stood at 11.1% and the inhibition in vivo at 3 mg/kg (Ex 9, D 3 mg/kg orally alone) amounted to 5.9%. In addition, the inhibition in vivo at 30 mg/kg came to 11.4% (Ex 8, D 30 mg/kg orally alone); 17.8% (Ex 9, D 30 mg/kg orally alone); 10.5% (Ex 10, D 30 mg/kg orally alone). Further, the inhibition in vivo at 10 mg/kg is, setting by setting: (Ex 9, D 10 mg/kg orally alone) 4.9%; (Ex 10, D 10 mg/kg orally alone) 7.4%. Also, under setting [1], the “inhibition (anti-inflammatory effect of the CO inhibitors)” value fell in the range of 0 to 55%.

Turning to `CC(C(=O)O)c1ccc(-c2ccccc2)c(F)c1` (stereo not shown) [F, flurbiprofen, reference compound], the inhibition in vivo at 3 mg/kg stood at 14.6% (Ex 6, F 3 mg/kg orally alone ([1] 0 mg/kg)) and 7.6% (Ex 7, F 3 mg/kg orally alone ([1] 0 mg/kg)). Besides, the “inhibition (anti-inflammatory effect of the CO inhibitors)” value under setting [1] lay in the range of 0 to 55%.

For `COc1ccc2c(c1)c(CC(=O)O)c(C)n2C(=O)c1ccc(Cl)cc1` [I, indomethacin, reference compound], the inhibition in vivo at 10 mg/kg (Ex 1, I 10 mg/kg orally alone ([1] 0 mg/kg)) worked out at 16.9%; the inhibition in vivo at 10 mg/kg (Ex 2, I 10 mg/kg orally alone ([1] 0 mg/kg)) was determined as 27.4%; the inhibition in vivo at 10 mg/kg (Ex 4, I 10 mg/kg orally alone) came out at 55.3%; the inhibition in vivo at 10 mg/kg (Ex 5, I 10 mg/kg orally alone) was determined as 55.6%; the inhibition in vivo at 10 mg/kg (Ex 11, I 10 mg/kg orally alone ([2] 0 mg/kg)) came out at 30%; the inhibition in vivo at 10 mg/kg (Ex 12, I 10 mg/kg orally alone) was found to be 33%. In addition, the inhibition in vivo at 10 mg/kg runs as follows: (Ex 13, I 10 mg/kg orally alone ([3] 0 mg/kg), asterisk (*): not statistically significant) 10%; (Ex 14, I 10 mg/kg orally alone ([4] 0 mg/kg), asterisk (*): not statistically significant) -2.5%; (Ex 15, I 10 mg/kg orally alone ([5] 0 mg/kg)) 27%. Also, the inhibition in vivo at 3 mg/kg came to 12.8% (Ex 3, I 3 mg/kg orally alone ([1] 0 mg/kg)); 15.3% (Ex 4, I 3 mg/kg orally alone); 18.2% (Ex 5, I 3 mg/kg orally alone); 27% (Ex 12, I 3 mg/kg orally alone). Also, for the setting “Ex 12, I 1 mg/kg orally alone”, the inhibition in vivo at 1 mg/kg is 13%. Further, the “inhibition (anti-inflammatory effect of the CO inhibitors)” value under setting [1] was 0 to 55%.

In the case of `COC1(c2cc(F)cc(OCc3ccc4c(ccc(=O)n4C)c3)c2)CCOCC1` [[1], 6-[(3-fluoro-5-[4-methoxy-3,4,5,6-tetrahydro-2H-pyran-4-yl]phenoxy)methyl]-1-methyl-2-quinolone], the inhibition in vivo at 1 mg/kg (Ex 1, [1] 1 mg/kg orally alone) turned out to be 14.6%; the inhibition in vivo at 1 mg/kg (Ex 6, [1] 1 mg/kg orally alone) was determined as 16.7%; the inhibition in vivo at 1 mg/kg (Ex 7, [1] 1 mg/kg orally alone) was 16.2%. The inhibition in vivo at 3 mg/kg (Ex 1, [1] 3 mg/kg orally alone) was determined as 19.1%; the inhibition in vivo at 3 mg/kg (Ex 2, [1] 3 mg/kg orally alone) was 9.5%; the inhibition in vivo at 3 mg/kg (Ex 3, [1] 3 mg/kg orally alone) came out at 0%; the inhibition in vivo at 3 mg/kg (Ex 6, [1] 3 mg/kg orally alone) came out at 20.8%; the inhibition in vivo at 3 mg/kg (Ex 7, [1] 3 mg/kg orally alone) is 13.3%. Further, the inhibition in vivo at 10 mg/kg (Ex 1, [1] 10 mg/kg orally alone) amounted to 47.2%; the inhibition in vivo at 10 mg/kg (Ex 2, [1] 10 mg/kg orally alone) is 0.5%; the inhibition in vivo at 10 mg/kg (Ex 3, [1] 10 mg/kg orally alone) came to 15.6%; the inhibition in vivo at 10 mg/kg (Ex 4, [1] 10 mg/kg orally alone (I 0 mg/kg)) was found to be 44.4%; the inhibition in vivo at 10 mg/kg (Ex 5, [1] 10 mg/kg orally alone (I 0 mg/kg)) amounted to 15.2%; the inhibition in vivo at 10 mg/kg (Ex 6, [1] 10 mg/kg orally alone) stood at 15.6%. In addition, the inhibition in vivo at 10 mg/kg is 11.4% (Ex 7, [1] 10 mg/kg orally alone); 12.5% (Ex 8, [1] 10 mg/kg orally alone (D 0 mg/kg)); 25.7% (Ex 9, [1] 10 mg/kg orally alone (D 0 mg/kg)); 3.2% (Ex 10, [1] 10 mg/kg orally alone (D 0 mg/kg)). Further, where the note is “summary of Examples 1 to 10, 5-LO inhibitor alone at 1-10 mg/kg orally, variable”, the “inhibition (anti-inflammatory effect of the 5-LO inhibitor)” value lay within 0 to 47%.

Regarding `COC1(c2cc(F)cc(Sc3ccc4c(c3)OCC(=O)N4C)c2)CCOCC1` [[2], 4-[5-fluoro-3-(4-methyl-3-oxo-2,3-dihydro-4H-1,4-benzoxazin-7-ylthio)phenyl]-4-methoxytetrahydropyran], for the setting “Ex 11, [2] 3 mg/kg orally alone”, the inhibition in vivo at 3 mg/kg was 15%. In addition, the inhibition in vivo at 10 mg/kg (Ex 11, [2] 10 mg/kg orally alone) was determined as 22%. In addition, the inhibition in vivo at 30 mg/kg by setting is: (Ex 11, [2] 30 mg/kg orally alone) 34%; (Ex 12, [2] 30 mg/kg orally alone (I 0 mg/kg)) 27%.

With `COC1(c2ccc(Sc3ccc4c(c3)CCC(=O)N4C)s2)CCOCC1` [[3], 4-methoxy-4-[5-(1-methyl-2-oxo-1,2,3,4-tetrahydroquinolin-6-ylthio)thien-2-yl]tetrahydropyran], the inhibition in vivo at 3 mg/kg (Ex 13, [3] 3 mg/kg orally alone, asterisk (*): not statistically significant) turned out to be 17%. For the setting “Ex 13, [3] 10 mg/kg orally alone”, the inhibition in vivo at 10 mg/kg was 15%. The inhibition in vivo at 30 mg/kg (Ex 13, [3] 30 mg/kg orally alone, asterisk (*): not statistically significant) worked out at 20%.

Regarding `COC1(c2cc(F)cc(Sc3ccc4c(c3)CCC(=O)N4C)c2)CCOCC1` [[4], 4-[5-fluoro-3-(1-methyl-2-oxo-1,2,3,4-tetrahydroquinolin-6-ylthio)phenyl]-4-methoxytetrahydropyran], the inhibition in vivo at 3 mg/kg (Ex 14, [4] 3 mg/kg orally alone, asterisk (*): not statistically significant) came out at 5%. Also, where the note is “Ex 14, [4] 10 mg/kg orally alone”, the inhibition in vivo at 10 mg/kg stood at 21%. Also, under “Ex 14, [4] 30 mg/kg orally alone”, the inhibition in vivo at 30 mg/kg is 22%.

Regarding `COC1(c2cc(F)cc(Sc3ccc(C(F)(F)c4ccc(F)cc4)cc3)c2)CCOCC1` [[5], 4-[5-fluoro-3-(4-(4-fluoro-alpha,alpha-difluorobenzyl)phenylthio)phenyl]-4-methoxytetrahydropyran], the inhibition in vivo at 3 mg/kg (Ex 15, [5] 3 mg/kg orally alone, asterisk (*): not statistically significant) worked out at 11%. The inhibition in vivo at 10 mg/kg (Ex 15, [5] 10 mg/kg orally alone, asterisk (*): not statistically significant) was 16%. The inhibition in vivo at 30 mg/kg (Ex 15, [5] 30 mg/kg orally alone, asterisk (*): not statistically significant) turned out to be 17%.

The inhibition in vivo is the change of the read-out against control, counted positive when it falls.
